# Patent US6737383B1, “Herbicidal oxadiazolidines” (priority 1999, dated 2004)
# Key:
# [1] = tested on: sugar beet; test: Test B pre/postemergence sugar beet; assay type: in vivo, Beta vulgaris; conditions: for Plant response rating, Sugarbeets: Postemergence
# In short: (§1)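 Herbicidal effect was estimated by eye on a ten-point control scale after plants spent twelve to sixteen days in a greenhouse following soil or foliar treatment. Foliar sprays targeted plants at one to four leaves; all doses were formulated in a non-phytotoxic solvent with surfactant.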
# [2] = tested on: corn; test: Test B pre/postemergence corn; assay type: in vivo, Zea mays
# In short: as §1
# [3] = tested on: wild oat; test: Test B pre/postemergence wild oat; assay type: in vivo, Avena fatua; conditions: for Plant response rating, Wild oats: Postemergence
# In short: as §1
# [4] = tested on: wheat; test: Test B pre/postemergence wheat; assay type: in vivo, Triticum aestivum; conditions: for Plant response rating, Wheat: Postemergence
# In short: as §1
# [5] = tested on: giant foxtail; test: Test B pre/postemergence giant foxtail; assay type: in vivo, Setaria faberii
# In short: as §1
# [6] = tested on: cocklebur; test: Test B pre/postemergence cocklebur; assay type: in vivo, Xanthium strumarium
# In short: as §1
# [7] = tested on: surinam grass; test: Test B pre/postemergence surinam grass; assay type: in vivo, Brachiaria decumbens
# In short: as §1
# [8] = tested on: velvetleaf; test: Test B pre/postemergence velvetleaf; assay type: in vivo, Abutilon theophrasti; conditions: for Plant response rating, Velvetleaf: Postemergence
# In short: as §1
# [9] = tested on: purple nutsedge; test: Test B pre/postemergence purple nutsedge; assay type: in vivo, Cyperus rotundus
# In short: as §1
# [10] = tested on: morningglory; test: Test B pre/postemergence morningglory; assay type: in vivo, Ipomoea hederacea
# In short: as §1
# [11] = tested on: smallflower flatsedge; test: Test B flood test smallflower flatsedge; assay type: in vivo, Cyperus difformis
# In short: (§2)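 Plants were grown to the 2-leaf stage before treatment with test chemical, then held in a greenhouse for twelve to sixteen days. Injury was visually rated against untreated controls on a 0–10 scale, where 0 is no effect and 10 is complete control.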
# [12] = tested on: soybean; test: Test B pre/postemergence soybean; assay type: in vivo, Glycine max; conditions: for Plant response rating, Soybean: Postemergence
# In short: as §1
# [13] = tested on: duck salad; test: Test B flood test duck salad; assay type: in vivo, Heteranthera limosa
# In short: as §2
# [14] = tested on: bedstraw; test: Test B pre/postemergence bedstraw; assay type: in vivo, Galium aparine
# In short: as §1
# [15] = tested on: crabgrass; test: Test B pre/postemergence crabgrass; assay type: in vivo, Digitaria sanguinalis
# In short: as §1
# [16] = tested on: rape; test: Test B pre/postemergence rape; assay type: in vivo, Brassica napus
# In short: as §1
# [17] = tested on: bamyardgrass; test: Test B flood test barnyardgrass; assay type: in vivo, Echinochloa crus-galli
# In short: as §2
# [18] = tested on: pigweed; test: Test B pre/postemergence pigweed; assay type: in vivo, Amaranthus retroflexus; conditions: for Plant response rating, Redroot pigweed: Postemergence
# In short: as §1
# [19] = tested on: rice; test: Test B flood test rice; assay type: in vivo, Oryza sativa
# In short: as §2
# [20] = tested on: blackgrass; test: Test B pre/postemergence blackgrass; assay type: in vivo, Alopecurus myosuroides
# In short: as §1
# [21] = Rate 500 g/ha, scale of 0 to 10 where 0 is no effect and 10 is complete control
# [22] = Preemergence, Rate 62 g/ha, scale 0 to 10 (0 no effect, 10 complete control)
# [23] = Preemergence, Rate 125 g/ha, scale 0 to 10, 0 is no effect, 10 is complete control
# [24] = Preemergence, Rate 500 g/ha, scale of 0 to 10 where 0 is no effect and 10 is complete control
# [25] = Rate 250 g/ha, scale of 0 to 10 where 0 is no effect and 10 is complete control
# [26] = Postemergence, Rate 62 g/ha, scale of 0 to 10, 0 is no effect, 10 is complete control
# [27] = Postemergence, Rate 125 g/ha, scale 0 to 10, 0 is no effect, 10 is complete control
# [28] = Postemergence, Rate 500 g/ha, scale of 0 to 10 where 0 is no effect and 10 is complete control
# [29] = Rate 250 g/ha, Postemergence, scale of 0 to 10 where 0 is no effect and 10 is complete control
# [30] = Rate 62 g/ha, flood test species, Pre-emergence, visual evaluation after twelve to sixteen days
# [31] = Rate 125 g/ha, under heading Pre-emergence, flood test species, visual evaluation after twelve to sixteen days
# [32] = Rate 250 g/ha, Pre-emergence (flood test species), scale 0 to 10, 0 is no effect, 10 is complete control
# [33] = Rate 500 g/ha, Pre-emergence section of Table B, 0 to 10 scale (0 no effect, 10 complete control)
compound,measurement,setting,value
CC(C)N(C(=O)n1oc(=O)n(CC2CC2)c1=O)c1ccccc1 [Compound 568],"Plant response rating, Sugarbeets",[1]; [21],2
same,Sugarbeets plant response rating,[1]; [22],5
same,Sugarbeets plant response rating,[1]; [23],5
same,Sugarbeets plant response rating (0 to 10 scale),"[1]; Preemergence, Rate 250 g/ha",6
same,Sugarbeets plant response rating,[1]; [24],8
same,"Plant response rating, Sugarbeets",[1]; [25],1
same,Corn plant response rating,[2]; [26],0
same,Corn plant response rating,[2]; [27],0
same,"Plant response rating, Corn",[2]; [28],5
same,Corn plant response rating,[2]; [22],0
same,Corn plant response rating,[2]; [23],4
same,Corn plant response rating (0 to 10 scale),"[2]; Preemergence, Rate 250 g/ha",5
same,Corn plant response rating,[2]; [24],9
same,"Plant response rating, Corn",[2]; [29],4
same,"Plant response rating, Wild oats",[3]; [21],6
same,Wild oats plant response rating,[3]; [22],5
same,Wild oats plant response rating,[3]; [23],5
same,Wild oats plant response rating (0 to 10 scale),"[3]; Preemergence, Rate 250 g/ha",6
same,Wild oats plant response rating,[3]; [24],8
same,"Plant response rating, Wild oats",[3]; [25],2
same,"Plant response rating, Wheat",[4]; [21],5
same,Wheat plant response rating,[4]; [22],0
same,Wheat plant response rating,[4]; [23],0
same,Wheat plant response rating (0 to 10 scale),"[4]; Preemergence, Rate 250 g/ha",0
same,Wheat plant response rating,[4]; [24],5
same,"Plant response rating, Wheat",[4]; [25],4
same,Giant foxtail plant response rating,[5]; [26],7
same,Giant foxtail plant response rating,[5]; [27],9
same,"Plant response rating, Giant foxtail",[5]; [28],9
same,Giant foxtail plant response rating,[5]; [22],9
same,Giant foxtail plant response rating,[5]; [23],10
same,Giant foxtail plant response rating (0 to 10 scale),"[5]; Preemergence, Rate 250 g/ha",10
same,Giant foxtail plant response rating,[5]; [24],10
same,"Plant response rating, Giant foxtail",[5]; [29],9
same,Cocklebur plant response rating,[6]; [26],1
same,Cocklebur plant response rating,[6]; [27],1
same,"Plant response rating, Cocklebur",[6]; [28],6
same,Cocklebur plant response rating,[6]; [22],0
same,Cocklebur plant response rating,[6]; [23],0
same,Cocklebur plant response rating (0 to 10 scale),"[6]; Preemergence, Rate 250 g/ha",0
same,Cocklebur plant response rating,[6]; [24],2
same,"Plant response rating, Cocklebur",[6]; [29],1
same,B. signalgrass plant response rating,[7]; [26],1
same,B. signalgrass plant response rating,[7]; [27],4
same,"Plant response rating, B. signalgrass",[7]; [28],7
same,B. signalgrass plant response rating,[7]; [22],3
same,B. signalgrass plant response rating,[7]; [23],6
same,"B. signalgrass plant response rating (0 to 10 scale, 0 is no effect, 10 is complete control)","[7]; Preemergence, Rate 250 g/ha",8
same,B. signalgrass plant response rating,[7]; [24],9
same,"Plant response rating, B. signalgrass",[7]; [29],7
same,"Plant response rating, Velvetleaf",[8]; [21],8
same,Velvetleaf plant response rating,[8]; [22],5
same,Velvetleaf plant response rating,[8]; [23],6
same,Velvetleaf plant response rating (0 to 10 scale),"[8]; Preemergence, Rate 250 g/ha",6
same,Velvetleaf plant response rating,[8]; [24],7
same,"Plant response rating, Velvetleaf",[8]; [25],5
same,Nutsedge plant response rating,[9]; [26],0
same,Nutsedge plant response rating,[9]; [27],0
same,"Plant response rating, Nutsedge",[9]; [28],0
same,Nutsedge plant response rating,[9]; [22],0
same,Nutsedge plant response rating,[9]; [23],0
same,Nutsedge plant response rating (0 to 10 scale),"[9]; Preemergence, Rate 250 g/ha",0
same,Nutsedge plant response rating,[9]; [24],3
same,"Plant response rating, Nutsedge",[9]; [29],0
same,Morningglory plant response rating,[10]; [26],7
same,Morningglory plant response rating,[10]; [27],10
same,"Plant response rating, Morningglory",[10]; [28],10
same,Morningglory plant response rating,[10]; [22],0
same,Morningglory plant response rating,[10]; [23],0
same,Morningglory plant response rating (0 to 10 scale),"[10]; Preemergence, Rate 250 g/ha",2
same,Morningglory plant response rating,[10]; [24],6
same,"Plant response rating, Morningglory",[10]; [29],10
same,"Plant response rating, S. Flatsedge (0 to 10 scale, 0 is no effect, 10 is complete control)",[11]; [30],0
same,"S. Flatsedge plant response rating (0 to 10 scale, 0 is no effect, 10 is complete control)",[11]; [31],0
same,S. Flatsedge plant response rating,[11]; [32],0
same,S. Flatsedge plant response rating,[11]; [33],4
same,"Plant response rating, Soybean",[12]; [21],6
same,Soybean plant response rating,[12]; [22],0
same,Soybean plant response rating,[12]; [23],0
same,Soybean plant response rating (0 to 10 scale),"[12]; Preemergence, Rate 250 g/ha",3
same,Soybean plant response rating,[12]; [24],9
same,"Plant response rating, Soybean",[12]; [25],6
same,"Plant response rating, Ducksalad (0 to 10 scale, 0 is no effect, 10 is complete control)",[13]; [30],0
same,"Ducksalad plant response rating (0 to 10 scale, 0 is no effect, 10 is complete control)",[13]; [31],0
same,Ducksalad plant response rating,[13]; [32],0
same,Ducksalad plant response rating,[13]; [33],2
same,Bedstraw plant response rating,[14]; [26],0
same,Bedstraw plant response rating,[14]; [27],2
same,Bedstraw plant response rating,[14]; [22],0
same,Bedstraw plant response rating (0 to 10 scale),"[14]; Preemergence, Rate 250 g/ha",3
same,Bedstraw plant response rating,[14]; [24],8
same,Crabgrass plant response rating,[15]; [26],8
same,Crabgrass plant response rating,[15]; [27],8
same,"Plant response rating, Crabgrass",[15]; [28],9
same,Crabgrass plant response rating,[15]; [22],7
same,Crabgrass plant response rating,[15]; [23],7
same,Crabgrass plant response rating (0 to 10 scale),"[15]; Preemergence, Rate 250 g/ha",9
same,Crabgrass plant response rating,[15]; [24],10
same,"Plant response rating, Crabgrass",[15]; [29],9
same,Rape plant response rating,[16]; [26],0
same,Rape plant response rating,[16]; [27],0
same,"Plant response rating, Rape",[16]; [28],3
same,Rape plant response rating,[16]; [22],0
same,Rape plant response rating,[16]; [23],0
same,Rape plant response rating (0 to 10 scale),"[16]; Preemergence, Rate 250 g/ha",5
same,Rape plant response rating,[16]; [24],7
same,"Plant response rating, Rape",[16]; [29],2
same,"Plant response rating, Barnyardgrass (0 to 10 scale, 0 is no effect, 10 is complete control)",[17]; [30],0
same,"Barnyardgrass plant response rating (0 to 10 scale, 0 is no effect, 10 is complete control)",[17]; [31],0
same,Barnyardgrass plant response rating,[17]; [32],3
same,Barnyardgrass plant response rating,[17]; [33],6
same,"Plant response rating, Redroot pigweed",[18]; [21],2
same,Redroot pigweed plant response rating,[18]; [22],2
same,Redroot pigweed plant response rating,[18]; [23],4
same,Redroot pigweed plant response rating (0 to 10 scale),"[18]; Preemergence, Rate 250 g/ha",4
same,Redroot pigweed plant response rating,[18]; [24],8
same,"Plant response rating, Redroot pigweed",[18]; [25],0
same,"Plant response rating, Rice (0 to 10 scale, 0 is no effect, 10 is complete control)",[19]; [30],1
same,"Rice plant response rating (0 to 10 scale, 0 is no effect, 10 is complete control)",[19]; [31],1
same,Rice plant response rating,[19]; [32],0
same,Rice plant response rating,[19]; [33],0
same,Blackgrass plant response rating,[20]; [26],8
same,Blackgrass plant response rating,[20]; [27],8
same,"Plant response rating, Blackgrass",[20]; [28],9
same,Blackgrass plant response rating,[20]; [22],5
same,Blackgrass plant response rating,[20]; [23],8
same,Blackgrass plant response rating (0 to 10 scale),"[20]; Preemergence, Rate 250 g/ha",8
same,Blackgrass plant response rating,[20]; [24],9
same,"Plant response rating, Blackgrass",[20]; [29],8
